Patent US4352799A, “2-Phenyl-1,2-benzisoselenazol-3(2H)-one containing pharmaceutical preparations and process for the treatment of rheumatic diseases” (A. Nattermann & Cie GmbH, priority 1980, dated 1982)

Legend:
[1] = tested on: arthritis caused by Freud adjuvans (pad volume); assay: Adjunct-Arthritis (C. M. PEARSON); type: in vivo, rat (wistar)
Experimental: There are used 10 wistar rats each weighing 120 to 150 g. per each dose. The same number of animals is used as control group. An arthritis is caused by subplantar injection of 0.5 ml. of Freud adjuvans. The test duration is 17 days. At the beginning of the test the volume of the pads of all for legs is determined as starting value. The volume is further determined on the 8th, 14th and 17th day of the test. In the evaluation, the difference between the pad volume at the beginning and at the end of the test is determined both in the test group as well as in the control group. The test result, i.e. the inhibition of the growth of the pad volume is expressed in percent.

[2] = tested on: arthritis caused by Freud adjuvans (pad volume); assay: Adjunct-Arthritis (C. M. PEARSON); type: in vivo, rat (wistar); details: 7th day p.i.
[3] = Toxicity in mice, p.o.
[4] = tested on: granuloma in the connective tissue; assay: Granuloma test (cotton-pellet-test) according to R. MEIER; type: in vivo, rat
From the text: In this test, cotton pellets impregnated with crotone oil are implanted subcutaneously into the test animals (rats) which impregnated cotton pellets cause the formation of granuloma in the connective tissue. After killing of the test animals, the granuloma are separated and recovered and are weighed as wet or dry tissue. The anti-proliferatic activity of an antiphlogistic agent is expressed in a lower granuloma weight in comparison to untreated control animals.

[5] = tested on: edema in hindpads of rats; assay: rat pad edema test (HILLEBRECHT, Carragenine); type: in vivo; details: 3 hours
Experimental: The antiphlogistic properties are determined in the rat pad edema test according to HILLEBRECHT (J. HILLEBRECHT, Arzneim. Forsch. 1954, vol. 4, p. 607). In this test, the formation of an edema is caused in one of the hindpads of rats weighing each 200 to 250 grams, by subplantar injection of Carragenine (0.5% in 0.9% NaCl solution) in an amount of 0.1 ml. solution per each pad. After administration of the test compound in an amount which in general should not be larger than a volume of 10 ml. per kg. body weight, the volume of the pad is determined in an overflow. 3 hours after administration of the test compound the final volume is determined. The test is carried out with 10 test animals and 10 control animals of one sex per each dose and is repeated with the same number of animals of the other sex. For evaluation purposes the percent inhibition of edema formation is determined over the control group.

[6] = Toxicity in rats, p.o.
[7] = tested on: ulcus formation of the stomach; assay: Ulcus test; type: in vivo, rat (wistar); details: 3.5 hours
Experimental: The determination of ulcus formation is carried out according to W. J. R. WHITTLE, Brit.J.Pharmacology 1975, vol. 55, pgs. 242 to 243; L. MARIANI, Europ. J. Toxicol. Eviron, 1975, vol. 8, pgs. 335 to 339; R. MENGUY and L. DESBAILLETS, Proc.Soc.Exp.Bio., vol. 125, p. 1108. In this test, 10 female and 10 male wistar rats are used each weighing 120 to 150 g. and which had been fed only with […] for 2 days and were kept thereafter without feeding for 16 hours. The formation of a bleeding ulcus of the stomach was provocated by oral application of the compound to be tested. 3.5 hours after administration the test animals were killed, the stomach was separated, opened along the large curvature and fixed to a polystyrol plate. There is determined the number and size of average ulcus formation both in the test group and in the control group.

[8] = 0.1 mg./kg. p.o., 14th day p.i.
[9] = 0.1 mg./kg. p.o., 17th day p.i.

COc1ccc2c(c1)c(CC(=O)O)c(C)n2C(=O)c1ccc(Cl)cc1 [Indometacin, reference compound]
inhibitory effect (growth of pad volume) [1, 8]: -25% | inhibitory effect (growth of pad volume) [1, 9]: -37% | inhibitory effect (growth of pad volume) ([1]; 1 mg./kg. p.o., 14th day p.i.): -40% | inhibitory effect (growth of pad volume) ([1]; 1 mg./kg. p.o., 17th day p.i.): -40% | lethality given in place of inhibitory effect ([1]; 10 mg./kg. p.o., 14th day p.i.): lethal | lethality given in place of inhibitory effect ([1]; 10 mg./kg. p.o., 17th day p.i.): lethal | inhibitory effect (growth of pad volume) ([2]; 0.1 mg./kg. p.o.): -32% | inhibitory effect (growth of pad volume) ([2]; 1 mg./kg. p.o.): -50% | lethality given in place of inhibitory effect ([2]; 10 mg./kg. p.o.): lethal | LD50 ([3]; mouse, in vivo, po): 19 mg/kg | mortality ([3]; mouse, in vivo, po, 19 mg/kg): 50% | Decrease of granuloma weight ([4]; 1 mg./kg. p.o.): -21% | Decrease of granuloma weight ([4]; 3.2 mg./kg. p.o.): -7% | Decrease of granuloma weight ([4]; 5.6 mg./kg. p.o.): -6% | Edema inhibition, inhibitory effect ([5]; 1.0 mg./kg. i.m.): -9% | Edema inhibition, inhibitory effect ([5]; 3 mg./kg. i.m.): -23% | Edema inhibition, inhibitory effect ([5]; 3.8 mg./kg. p.o.): -26% | Edema inhibition, inhibitory effect ([5]; 5.6 mg./kg. p.o.): -45% | Edema inhibition, inhibitory effect ([5]; 8.3 mg./kg. p.o.): -57% | Edema inhibition, inhibitory effect ([5]; 10 mg./kg. i.m.): -33% | LD50 ([6]; rat, in vivo, po): 38 mg/kg | mortality ([6]; rat, in vivo, po, 38 mg/kg): 50%

O=c1c2ccccc2[se]n1-c1ccccc1 [2-Phenyl-1.2-benzisoselenazol-3(2H)-one, 2-phenyl-1.2-benzisoselenazol-3(2H)-one]
inhibitory effect (growth of pad volume) [1, 8]: -10% | inhibitory effect (growth of pad volume) [1, 9]: -13% | inhibitory effect (growth of pad volume) ([1]; 1 mg./kg. p.o., 14th day p.i.): -36% | inhibitory effect (growth of pad volume) ([1]; 1 mg./kg. p.o., 17th day p.i.): -33% | inhibitory effect (growth of pad volume) ([1]; 10 mg./kg. p.o., 14th day p.i.): -22% | inhibitory effect (growth of pad volume) ([1]; 10 mg./kg. p.o., 17th day p.i.): -24% | toxicity effects ([1]; at higher doses, p.o.): no toxicity effects occur | inhibitory effect (growth of pad volume) ([2]; 0.1 mg./kg. p.o.): -22% | inhibitory effect (growth of pad volume) ([2]; 1 mg./kg. p.o.): -46% | inhibitory effect (growth of pad volume) ([2]; 10 mg./kg. p.o.): -30% | Ulcus formation, effectiveness ([7]; 1 mg./kg. p.o.): 0 | Ulcus formation, effectiveness ([7]; 10 mg./kg. p.o.): 0 | Ulcus formation, effectiveness ([7]; 100 mg./kg. p.o.): 0 | dose at lethality 0% ([3]; mice, p.o.): > 2,150 mg./Kg. | mortality ([3]; mouse, in vivo, po, 2150 mg/kg): 0% | Decrease of granuloma weight ([4]; 0.1 mg./kg. p.o.): -22% | Decrease of granuloma weight ([4]; 1 mg./kg. p.o.): -21% | Decrease of granuloma weight ([4]; 10 mg./kg. p.o.): -20% | Edema inhibition, inhibitory effect ([5]; 0.1 mg./kg. i.m.): -23% | Edema inhibition, inhibitory effect ([5]; 0.1 mg./kg. p.o.): -1% | Edema inhibition, inhibitory effect ([5]; 1.0 mg./kg. i.m.): -62% | Edema inhibition, inhibitory effect ([5]; 1.0 mg./kg. p.o.): -57% | Edema inhibition, inhibitory effect ([5]; 10 mg./kg. i.m.): -35% | Edema inhibition, inhibitory effect ([5]; 10 mg./kg. p.o.): -40% | mortality ([6]; rat, in vivo, po, 4600 mg/kg): 0% | dose at lethality 0% ([6]; rats, p.o.): 4,600 mg./kg.
